Experimental findings from patent publication US11034725B2, “Compositions and methods for treating cardiovascular disease” (Genentech, Inc., priority 2016, dated 2021) are described below.

Each structure is given as a SMILES string. Square brackets hold non-standard residues; d marks the D form. Peptide text beside a SMILES is read from it. * marks the point of attachment. Butanoyl(4-(4-HOPh)) = O=C(CCCc1ccc(O)cc1)*; Dihydrocaffeoyl = O=C(CCc1ccc(O)c(O)c1)*; Desaminotyrosyl = O=C(CCc1ccc(O)cc1)*; Butanoyl(4-Ph) = O=C(CCCc1ccccc1)*; X17 = O=C([C@H]1C[C@@H]1c1cccnc1)*; hArg = N=C(N)NCCCC[C@H](N)C(=O)O; X8 = O=C(c1ccc(N2CCOCC2)nc1)*; X42 = O=C(c1ccc2cc[nH]c2c1)*; X25 = COc1cc(CCC(=O)*)ccc1O; X10 = Nc1cccc(CCC(=O)*)c1; X29 = Nc1ccc(CCC(=O)*)cc1; X30 = O=C(CCc1cccc(O)c1)*; X35 = Nc1ccc(CCC(=O)*)cn1; X4 = Cc1ccc(OCCC(=O)*)cc1

One test concerns the target PCSK9 (Homo sapiens, UniProt Q8NBP7). The test is described as follows: PCSK9/EGF(A) TR-FRET binding assay. Particulars: TR-FRET; Table 8E, additional compounds; read-out: PCSK9/EGF(A) IC50. In general terms: TR-FRET usually uses a lanthanide donor and a delayed reading to cut background.
In a further test the target is T1, PCSK9Δhelix (Homo sapiens, UniProt Q8NBP7).
T1 construct: Human PCSK9 construct M1-Q692 with an engineered TEV site (residue deletion Y166, R167); made in house; host or cells: CHO
As to the kind of experiment: PCSK9Δhelix/Ab20 TR-FRET binding assay. Particulars: TR-FRET; Table 8E, additional compounds; read-out: PCSK9Δhelix/Ab20 IC50.

Sequence of PCSK9 (Q8NBP7 153-692): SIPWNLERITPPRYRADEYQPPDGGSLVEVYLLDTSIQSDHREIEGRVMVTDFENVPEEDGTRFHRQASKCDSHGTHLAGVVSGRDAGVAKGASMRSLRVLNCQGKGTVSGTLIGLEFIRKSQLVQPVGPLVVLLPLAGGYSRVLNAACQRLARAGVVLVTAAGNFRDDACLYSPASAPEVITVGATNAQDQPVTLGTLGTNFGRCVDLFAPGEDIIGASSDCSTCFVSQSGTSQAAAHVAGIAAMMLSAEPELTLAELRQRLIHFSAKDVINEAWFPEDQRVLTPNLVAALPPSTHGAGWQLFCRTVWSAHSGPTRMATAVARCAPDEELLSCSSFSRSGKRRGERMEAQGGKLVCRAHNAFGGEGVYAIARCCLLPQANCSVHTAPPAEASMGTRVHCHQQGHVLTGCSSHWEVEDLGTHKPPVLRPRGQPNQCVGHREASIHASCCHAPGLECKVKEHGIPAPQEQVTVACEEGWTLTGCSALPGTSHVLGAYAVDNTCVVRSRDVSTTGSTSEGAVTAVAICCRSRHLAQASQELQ
Sequence of PCSK9 (Q8NBP7 31-152 partner limits assumed): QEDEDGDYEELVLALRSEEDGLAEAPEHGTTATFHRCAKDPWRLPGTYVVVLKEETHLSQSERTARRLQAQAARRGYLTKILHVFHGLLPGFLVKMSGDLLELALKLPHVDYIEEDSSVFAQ
T1 sequence (Q8NBP7 with tags, fused parts or gaps limits assumed): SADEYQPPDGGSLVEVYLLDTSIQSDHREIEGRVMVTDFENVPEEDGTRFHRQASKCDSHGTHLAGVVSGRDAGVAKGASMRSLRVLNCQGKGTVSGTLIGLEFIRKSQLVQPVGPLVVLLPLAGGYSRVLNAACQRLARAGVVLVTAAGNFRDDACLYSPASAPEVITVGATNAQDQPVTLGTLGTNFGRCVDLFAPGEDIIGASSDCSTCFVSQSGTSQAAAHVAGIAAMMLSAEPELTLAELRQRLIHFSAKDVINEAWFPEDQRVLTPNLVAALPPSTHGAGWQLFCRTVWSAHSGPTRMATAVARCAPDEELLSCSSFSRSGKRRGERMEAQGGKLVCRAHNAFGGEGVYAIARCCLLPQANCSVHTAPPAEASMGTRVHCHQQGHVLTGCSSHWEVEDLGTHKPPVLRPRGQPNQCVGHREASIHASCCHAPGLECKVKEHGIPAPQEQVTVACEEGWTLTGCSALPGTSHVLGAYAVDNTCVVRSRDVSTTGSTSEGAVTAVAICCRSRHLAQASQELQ
T1 sequence (Q8NBP7 31-152 partner limits assumed): as the sequence (Q8NBP7 31-152 partner limits assumed) above

Consider `CC[C@H](C)[C@H](NC(=O)[C@H](CCCCNC(=N)N)NC(=O)[C@@H](NC(=O)[C@H](CC(C)C)NC(=O)[C@H](CC(N)=O)NC(=O)[C@H](Cc1c[nH]c2ccccc12)NC(=O)CCOc1ccc(C)cc1)C(C)C)C(=O)NCC(=O)N[C@@H](CC(C)C)C(=O)N[C@@H](CC(C)C)C(=O)N[C@@H](CCCNC(=N)N)C(N)=O` [Compound 211] (X4-WNLV[hArg]IGLLR-NH2), for which the IC50 at PCSK9 stood at 14 µM; on PCSK9Δhelix, 3.8 µM.

As to `CC[C@H](C)[C@H](NC(=O)[C@H](CCCCNC(=N)N)NC(=O)[C@@H](NC(=O)[C@H](CC(C)C)NC(=O)[C@H](CC(N)=O)NC(=O)[C@H](Cc1c[nH]c2ccccc12)NC(=O)CCCc1ccccc1)C(C)C)C(=O)NCC(=O)N[C@@H](CC(C)C)C(=O)N[C@@H](CC(C)C)C(=O)N[C@@H](CCCNC(=N)N)C(N)=O` [Compound 212] ({Butanoyl(4-Ph)}-WNLV[hArg]IGLLR-NH2), the IC50 at PCSK9 came out at 15 µM; on PCSK9Δhelix, 1.6 µM.

As for `CC[C@H](C)[C@H](NC(=O)[C@H](CCCCNC(=N)N)NC(=O)[C@@H](NC(=O)[C@H](CC(C)C)NC(=O)[C@H](CC(N)=O)NC(=O)[C@H](Cc1c[nH]c2ccccc12)NC(=O)CCc1ccc(O)c(OC)c1)C(C)C)C(=O)NCC(=O)N[C@@H](CC(C)C)C(=O)N[C@@H](CC(C)C)C(=O)N[C@@H](CCCNC(=N)N)C(N)=O` [Compound 213] (X25-WNLV[hArg]IGLLR-NH2), the IC50 at PCSK9 turned out to be 3.8 µM; on PCSK9Δhelix, 0.2 µM.

Take `CC[C@H](C)[C@H](NC(=O)[C@H](CCCCNC(=N)N)NC(=O)[C@@H](NC(=O)[C@H](CC(C)C)NC(=O)[C@H](CC(N)=O)NC(=O)[C@H](Cc1c[nH]c2ccccc12)NC(=O)CCc1ccc(O)cc1)C(C)C)C(=O)NCC(=O)N[C@@H](CC(C)C)C(=O)N[C@@H](CC(C)C)C(=O)N[C@@H](CCCNC(=N)N)C(N)=O` [Compound 214] (Desaminotyrosyl-WNLV[hArg]IGLLR-NH2): the IC50 amounted to 3 µM on PCSK9 and 0.21 µM at PCSK9Δhelix.

Regarding `CC[C@H](C)[C@H](NC(=O)[C@H](CCCCNC(=N)N)NC(=O)[C@@H](NC(=O)[C@H](CC(C)C)NC(=O)[C@H](CC(N)=O)NC(=O)[C@H](Cc1c[nH]c2ccccc12)NC(=O)CCc1cccc(N)c1)C(C)C)C(=O)NCC(=O)N[C@@H](CC(C)C)C(=O)N[C@@H](CC(C)C)C(=O)N[C@@H](CCCNC(=N)N)C(N)=O` [Compound 215] (X10-WNLV[hArg]IGLLR-NH2), the results for the IC50 at PCSK9 and on PCSK9Δhelix were 7 µM and 0.48 µM, respectively.

For `CC[C@H](C)[C@H](NC(=O)[C@H](CCCCNC(=N)N)NC(=O)[C@@H](NC(=O)[C@H](CC(C)C)NC(=O)[C@H](CC(N)=O)NC(=O)[C@H](Cc1c[nH]c2ccccc12)NC(=O)CCc1ccc(N)nc1)C(C)C)C(=O)NCC(=O)N[C@@H](CC(C)C)C(=O)N[C@@H](CC(C)C)C(=O)N[C@@H](CCCNC(=N)N)C(N)=O` [Compound 216] (X35-WNLV[hArg]IGLLR-NH2), the IC50 was found to be 6 µM at PCSK9 and 0.3 µM at PCSK9Δhelix.

Turning to `CC[C@H](C)[C@H](NC(=O)[C@H](CCCCNC(=N)N)NC(=O)[C@@H](NC(=O)[C@H](CC(C)C)NC(=O)[C@H](CC(N)=O)NC(=O)[C@H](Cc1c[nH]c2ccccc12)NC(=O)CCc1cccc(O)c1)C(C)C)C(=O)NCC(=O)N[C@@H](CC(C)C)C(=O)N[C@@H](CC(C)C)C(=O)N[C@@H](CCCNC(=N)N)C(N)=O` [Compound 217] (X30-WNLV[hArg]IGLLR-NH2), the IC50 turned out to be 4.1 µM on PCSK9 and 0.39 µM at PCSK9Δhelix.

Regarding `CC[C@H](C)[C@H](NC(=O)[C@H](CCCCNC(=N)N)NC(=O)[C@@H](NC(=O)[C@H](CC(C)C)NC(=O)[C@H](CC(N)=O)NC(=O)[C@H](Cc1c[nH]c2ccccc12)NC(=O)CCc1ccc(N)cc1)C(C)C)C(=O)NCC(=O)N[C@@H](CC(C)C)C(=O)N[C@@H](CC(C)C)C(=O)N[C@@H](CCCNC(=N)N)C(N)=O` [Compound 218] (X29-WNLV[hArg]IGLLR-NH2), the IC50 on PCSK9 came out at 5 µM; on PCSK9Δhelix it was 0.26 µM.

In the case of `CC[C@H](C)[C@H](NC(=O)[C@H](CCCCNC(=N)N)NC(=O)[C@@H](NC(=O)[C@H](CC(C)C)NC(=O)[C@H](CC(N)=O)NC(=O)[C@H](Cc1c[nH]c2ccccc12)NC(=O)c1ccc(N2CCOCC2)nc1)C(C)C)C(=O)NCC(=O)N[C@@H](CC(C)C)C(=O)N[C@@H](CC(C)C)C(=O)N[C@@H](CCCNC(=N)N)C(N)=O` [Compound 219] (X8-WNLV[hArg]IGLLR-NH2), the IC50 at PCSK9 turned out to be 9.9 µM; at PCSK9Δhelix it was 0.68 µM.

Regarding `CC[C@H](C)[C@H](NC(=O)[C@H](CCCCNC(=N)N)NC(=O)[C@@H](NC(=O)[C@H](CC(C)C)NC(=O)[C@H](CC(N)=O)NC(=O)[C@H](Cc1c[nH]c2ccccc12)NC(=O)CCCc1ccc(O)cc1)C(C)C)C(=O)NCC(=O)N[C@@H](CC(C)C)C(=O)N[C@@H](CC(C)C)C(=O)N[C@@H](CCCNC(=N)N)C(N)=O` [Compound 220] ({Butanoyl(4-(4-HOPh))}-WNLV[hArg]IGLLR-NH2), the IC50 came to 37 µM at PCSK9 and 0.91 µM on PCSK9Δhelix.

Regarding `CC[C@H](C)[C@H](NC(=O)[C@H](CCCCNC(=N)N)NC(=O)[C@@H](NC(=O)[C@H](CC(C)C)NC(=O)[C@H](CC(N)=O)NC(=O)[C@H](Cc1c[nH]c2ccccc12)NC(=O)c1ccc2cc[nH]c2c1)C(C)C)C(=O)NCC(=O)N[C@@H](CC(C)C)C(=O)N[C@@H](CC(C)C)C(=O)N[C@@H](CCCNC(=N)N)C(N)=O` [Compound 222] (X42-WNLV[hArg]IGLLR-NH2), the IC50 at PCSK9 is 21 µM; on PCSK9Δhelix, 1.4 µM.

As for `CC[C@H](C)[C@H](NC(=O)[C@H](CCCCNC(=N)N)NC(=O)[C@@H](NC(=O)[C@H](CC(C)C)NC(=O)[C@H](CC(N)=O)NC(=O)[C@H](Cc1c[nH]c2ccccc12)NC(=O)[C@H](N)Cc1ccc(O)cc1)C(C)C)C(=O)NCC(=O)N[C@@H](CC(C)C)C(=O)N[C@@H](CC(C)C)C(=O)N[C@@H](CCCNC(=N)N)C(N)=O` [Compound 223] (H-[dY]WNLV[hArg]IGLLR-NH2), the IC50 at PCSK9 came out at 21 µM; at PCSK9Δhelix it was 1.4 µM.

Take `CC[C@H](C)[C@H](NC(=O)[C@H](CCCCNC(=N)N)NC(=O)[C@@H](NC(=O)[C@H](CC(C)C)NC(=O)[C@H](CC(N)=O)NC(=O)[C@H](Cc1c[nH]c2ccccc12)NC(=O)CCc1ccc(O)c(O)c1)C(C)C)C(=O)NCC(=O)N[C@@H](CC(C)C)C(=O)N[C@@H](CC(C)C)C(=O)N[C@@H](CCCNC(=N)N)C(N)=O` [Compound 224] (Dihydrocaffeoyl-WNLV[hArg]IGLLR-NH2): the IC50 amounted to 7 µM at PCSK9 and 0.53 µM on PCSK9Δhelix.

Regarding `CC[C@H](C)[C@H](NC(=O)[C@H](CCCCNC(=N)N)NC(=O)[C@@H](NC(=O)[C@H](CC(C)C)NC(=O)[C@H](CC(N)=O)NC(=O)[C@H](Cc1c[nH]c2ccccc12)NC(=O)[C@H]1C[C@@H]1c1cccnc1)C(C)C)C(=O)NCC(=O)N[C@@H](CC(C)C)C(=O)N[C@@H](CC(C)C)C(=O)N[C@@H](CCCNC(=N)N)C(N)=O` [Compound 225] (X17-WNLV[hArg]IGLLR-NH2), the IC50 at PCSK9 came out at 27 µM; on PCSK9Δhelix it was 1.8 µM.

As for `CC[C@H](C)[C@H](NC(=O)[C@H](CCCCNC(=N)N)NC(=O)[C@@H](NC(=O)[C@H](CC(C)C)NC(=O)[C@H](CC(N)=O)NC(=O)[C@H](Cc1c[nH]c2ccccc12)NC(=O)[C@@H](N)Cc1ccc(O)cc1)C(C)C)C(=O)NCC(=O)N[C@@H](CC(C)C)C(=O)N[C@@H](CC(C)C)C(=O)N[C@@H](CCCNC(=N)N)C(N)=O` [Compound 226] (H-YWNLV[hArg]IGLLR-NH2), the results for the IC50 at PCSK9 and at PCSK9Δhelix were 6.2 µM and 0.35 µM, respectively.
